The values that follow come from ChEMBL document CHEMBL4270495, “Oleanane-, ursane-, and quinone methide friedelane-type triterpenoid derivatives: Recent advances in cancer treatment” (Eur J Med Chem, 2017).

The subject of experiment [1] is PC-3. The experiment in a line: Cytotoxicity in human PC3 cells assessed as reduction in cell viability incubated for 48 hrs by XTT assay. Particulars: PC-3, 48 h. It counts as functional, cell-based.
The test system of another experiment is HMEC. The experiment in a line: Cytotoxicity in human HMEC cells assessed as reduction in cell viability incubated for 48 hrs by SRB assay. It is filed as cell-based. On the technique in general: Sulforhodamine B stains cellular protein and so reports cell mass.
In the next experiment the test system is MDA-MB-231. The experiment is described as follows: Cytotoxicity in human MDA-MB-231 cells assessed as reduction in cell viability incubated for 24 hrs by MTT assay. It is filed as functional, cell-based. Particulars: MDA-MB-231, 24 h.
Experiment [2] deals with MCF7. The experiment in a line: Cytotoxicity in human MCF7 cells assessed as reduction in cell viability incubated for 24 hrs by MTT assay. It counts as functional, cell-based. To be noted: MCF7, 24 h. For orientation: Tetrazolium assays rely on reduction of a dye to a coloured formazan, in cell work by metabolically active cells.
A further experiment concerns 4T1. The experiment is described as follows: Cytotoxicity in mouse 4T1 cells assessed as reduction in cell viability incubated for 24 hrs by MTT assay. To be noted: 4T1, 24 h. It is filed as functional, cell-based.
A further experiment deals with Bel-7402. The experiment is described as follows: Cytotoxicity in human Bel7402 cells assessed as reduction in cell viability incubated for 72 hrs by MTT assay. It counts as functional, cell-based. To be noted: Bel-7402, 72 h.
Another experiment has as its system H4. The experiment is described as follows: Cytotoxicity in human H4 cells assessed as reduction in cell viability incubated for 72 hrs by MTT assay. Particulars: H4, 72 h. It is filed as functional, cell-based.
The subject of the next experiment is COLO 205. The experiment in a line: Cytotoxicity in human COLO205 cells assessed as reduction in cell viability incubated for 72 hrs by MTT assay. It counts as functional, cell-based. To be noted: COLO 205, 72 h.
Experiment [3] has as its system MCF7. The experiment is described as follows: Cytotoxicity in human MCF7 cells assessed as reduction in cell viability. It is filed as functional, cell-based.
Another experiment concerns HepG2. The experiment in a line: Cytotoxicity in human HepG2 cells assessed as reduction in cell viability. It is filed as functional, cell-based.
Experiment [4] relates to A549. The experiment in a line: Potency index, ratio of IC50 for Iressa to IC50 for test compound for cytotoxicity in human A549 cells assessed as reduction in cell viability incubated for 24 hrs by MTT assay. It counts as functional.
Experiment [5] deals with A549. The experiment in a line: Cytotoxicity in human A549 cells assessed as reduction in cell viability incubated for 24 hrs by MTT assay. It counts as functional, cell-based. To be noted: A549, 24 h.
In experiment [6] the test system is HL-60. The experiment in a line: Cytotoxicity in human HL60 cells assessed as reduction in cell viability incubated for 24 hrs by MTT assay. It counts as functional, cell-based. Particulars: HL-60, 24 h.
In experiment [7] the test system is A549. The experiment in a line: Cytotoxicity in human A549 cells assessed as reduction in cell viability incubated for 48 hrs by SRB assay. To be noted: A549, 48 h. It counts as functional, cell-based.
Experiment [8] concerns MCF7. The experiment is described as follows: Cytotoxicity in human MCF7 cells assessed as reduction in cell viability incubated for 48 hrs by SRB assay. It is filed as functional, cell-based. Particulars: MCF7, 48 h.
Experiment [9] has as its system PC-3. The experiment in a line: Cytotoxicity in human PC3 cells assessed as reduction in cell viability incubated for 48 hrs by SRB assay. It counts as functional, cell-based. To be noted: PC-3, 48 h.
In another experiment the test system is T-ALL. The experiment in a line: Cytotoxicity in human T-ALL cells assessed as reduction in cell viability. It counts as functional, cell-based.
Another experiment has as its system NCI-H1299. The experiment is described as follows: Cytotoxicity in human NCI-H1299 cells assessed as reduction in cell viability. It is filed as functional, cell-based.
Experiment [10] has as its system HL-60. The experiment in a line: Cytotoxicity in human HL60 cells assessed as reduction in cell viability. It counts as functional, cell-based.
The subject of a further experiment is Daudi. The experiment in a line: Cytotoxicity in human Daudi cells assessed as reduction in cell viability. It counts as functional, cell-based.
Experiment [11] can be described thus: Cytotoxicity in human BCP-ALL cells assessed as reduction in cell viability. It is filed as functional, cell-based.

Bounds are passed on as bounds.

In general, IC50 refers to the concentration that inhibits the measured activity by half. For `C[C@H]1[C@H](C)CC[C@]2(C)CC[C@]3(C)C(=CC(=O)[C@@H]4[C@@]5(C)CC[C@H](OC(=O)/C=C/c6ccccc6)[C@](C)(C(=O)O)[C@@H]5CC[C@]43C)[C@H]12`, in the experiment with PC-3 [1], the half-maximal inhibitory concentration (IC50) came out at 3.6 µM.

Regarding `CC(=O)Oc1ccccc1C(=O)O[C@H]1CC[C@]2(C)[C@H]3CC=C4[C@@H]5[C@@H](C)[C@H](C)CC[C@]5(C(=O)O)CC[C@@]4(C)[C@]3(C)CC[C@H]2C1(C)C`, the IC50 with HMEC was > 100 µM; with MDA-MB-231, 63.9 µM; with MCF7 [2], 72.2 µM; in the experiment with 4T1 it was 62 µM.

Take `CC(=O)Oc1cc2c(c(C)c1OC(C)=O)C(S(=O)(=O)O)C=C1C2(C)CC[C@@]2(C)[C@@H]3C[C@](C)(C(=O)O)CC[C@]3(C)CC[C@]12C` (single isomer, unassigned): the results for the IC50 with Bel-7402, in the experiment with H4 and with COLO 205 were 1.73 µM, 1.37 µM and 0.06 µM, respectively.

Regarding `CC(=O)O/N=C1\CC[C@]2(C)[C@H]3CC=C4[C@@H]5[C@@H](C)[C@H](C)CC[C@]5(C(=O)O)CC[C@@]4(C)[C@]3(C)CC[C@H]2C1(C)C`, the half-maximal inhibitory concentration (IC50) with MCF7 [3] came to 3.4 µM; in the experiment on HepG2 it was 4.3 µM.

On to `CC1(C)CC[C@]2(C(=O)O)CC[C@]3(C)C(=CC[C@@H]4[C@@]5(C)CC[C@H](O[C@@H]6OC[C@H](O)[C@H](O[C@H]7O[C@H](CO)[C@@H](O)[C@H](O)[C@@H]7O)[C@H]6O)[C@@](C)(CO)[C@@H]5CC[C@]43C)[C@H]2C1`, for which, in the experiment on A549 [4], the “Ratio IC50” value was 4. Moreover, the concentration for half-maximal inhibition (IC50) in the experiment with A549 [5] worked out at 6.6 µM; in the experiment on MCF7 [2] it was 19.3 µM.

Consider `CCC(=O)O[C@H]1CC[C@@]2(C)[C@@H](CC[C@]3(C)[C@@H]2CC=C2[C@@H]4[C@@H](C)[C@H](C)CC[C@]4(C)CC[C@]23C)[C@@]1(C)C(=O)O`, for which the half-maximal inhibitory concentration (IC50) in the experiment with HL-60 [6] was 14 µM; in the experiment on A549 [7], 29 µM; in the experiment with MCF7 [8], 29 µM; in the experiment with PC-3 [9], 31 µM.

As to `CC1=C(O)C(=O)C=C2C1=CC=C1[C@@]2(C)CC[C@@]2(C)[C@@H]3C[C@](C)(C(=O)O)CC[C@]3(C)CC[C@]12C` [CELASTROL], the IC50 (in the experiment with T-ALL; in the experiment with NCI-H1299; in the experiment with HL-60 [10]; with Daudi; in [11]) was < 1 µM in each case.
